Results published in ChEMBL document CHEMBL4385663, “Discovery of novel PTHR1 antagonists: Design, synthesis, and structure activity relationships” (Bioorg Med Chem Lett, 2019).
In brackets after ≈: the same amount, converted by molar mass.

Columns and labels:
[1] = target: T1, Parathyroid hormone/parathyroid hormone-related peptide receptor (Homo sapiens, UniProt Q03431)
T1 sequence (Q03431 whole entry): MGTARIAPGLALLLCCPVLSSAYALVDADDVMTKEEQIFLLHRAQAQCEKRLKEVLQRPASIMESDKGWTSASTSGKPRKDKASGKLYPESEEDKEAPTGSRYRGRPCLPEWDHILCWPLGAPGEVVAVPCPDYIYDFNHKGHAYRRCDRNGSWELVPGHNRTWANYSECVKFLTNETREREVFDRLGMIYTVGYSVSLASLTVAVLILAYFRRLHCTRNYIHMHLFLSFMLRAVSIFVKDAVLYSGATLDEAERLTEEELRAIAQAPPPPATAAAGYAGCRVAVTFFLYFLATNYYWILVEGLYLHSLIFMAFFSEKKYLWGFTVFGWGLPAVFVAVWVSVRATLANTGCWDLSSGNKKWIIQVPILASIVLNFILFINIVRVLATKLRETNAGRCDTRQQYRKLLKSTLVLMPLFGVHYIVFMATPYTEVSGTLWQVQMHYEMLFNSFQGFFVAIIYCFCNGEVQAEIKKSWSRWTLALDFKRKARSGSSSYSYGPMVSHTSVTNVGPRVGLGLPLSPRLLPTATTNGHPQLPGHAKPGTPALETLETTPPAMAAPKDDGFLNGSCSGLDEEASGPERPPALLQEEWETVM
Description: Antagonist activity at human PTHR1 expressed in CHOK1 cells co-expressing Gs/Gq assessed as reduction in human PTH (1 to 34 residues)-induced cAMP accumulation incubated for 30 mins by HTRF assay

physchem = conditions: 1-octanol/phosphate buffered saline, pH 7.4
Description: Distribution coefficient, log D of the compound in 1-octanol and phosphate buffered saline at pH 7.4

[2] = Solubility of the compound in JP1 buffer at pH 1.2; type: physicochemical
[3] = Solubility of the compound in JP2 buffer at pH 6.8; type: physicochemical
[4] = Protein binding in rat plasma assessed as unbound fraction; type: ADME, cell-free
[5] = Clearance in Sprague-Dawley rat at 1 mg/kg, iv; type: ADME, organism-based; conditions: in vivo
[6] = Volume of distribution in Sprague-Dawley rat at 1 mg/kg, iv; type: ADME, organism-based; conditions: in vivo
[7] = Half life in Sprague-Dawley rat at 10 mg/kg, po; type: ADME, organism-based; conditions: in vivo
[8] = AUClast in Sprague-Dawley rat at 10 mg/kg, po; type: ADME, organism-based; parameters: dose 10 mg/kg, time 0 - last, route oral; conditions: in vivo
[9] = Oral bioavailability in Sprague-Dawley rat at 10 mg/kg; type: ADME, organism-based; conditions: in vivo
in vitro = conditions: rat, liver microsomes
Description: Metabolic stability in rat liver microsomes assessed as parent compound remaining after 0.5 hrs

| SMILES | IC50 [1] | further results |
| --- | --- | --- |
| CC1(C)N=C(c2ccccc2)c2ccc(Cl)cc2N(c2ccc(NCCN)cc2)C1=O | 45 µM | – |
| CC1(C)N=C(C2CCCCC2)c2ccc(C#N)cc2N(c2ccc(OCCN)cc2)C1=O | 4 µM | – |
| COc1ccc2c(c1)N(c1ccc(NCCN)cc1)C(=O)C(C)(C)N=C2C1CCCCC1 | 14 µM | – |
| CC1(C)N=C(C2CCCCC2)c2ccc(C#N)cc2N(c2ccc(NCCCN)cc2)C1=O | 4.1 µM | – |
| CC1(C2=NC(C)(C)C(=O)N(c3ccc(NCCN)cc3)c3cc(Cl)ccc32)CCCCC1 | 16 µM | – |
| CC1(C)N=C(C2CCCCC2)c2ccc(C#N)cc2N(c2ccc(NCCN)cc2)C1=O | 0.73 µM | logD (physchem): 2.1 |
| CC(C)N1N=C(C2CCCCC2)c2ccc(Cl)cc2N(c2ccc(CC3=NCCN3)cc2)C1=O | 9.4 µM | logD (physchem): 4.2 |
| Cc1ccc2c(c1)N(c1ccc(NCCN)cc1)C(=O)C(C)(C)N=C2C1CCCCC1 | 6.1 µM | – |
| NCCNc1ccc(N2C(=O)CN=C(C3CCCCC3)c3ccc(Cl)cc32)cc1 | 38 µM | logD (physchem): 1.7 |
| CC1(C)N=C(C2CCCCC2)c2ccc(C#N)cc2N(c2ccc(CCCN)cc2)C1=O | 7.6 µM | – |

Continued, in another order:

| IC50 [1] | SMILES | further results |
| --- | --- | --- |
| 44 µM | CN(C)C1N=C(C2CCCCC2)c2ccc(Cl)cc2N(c2ccc(NCCN)cc2)C1=O (stereo not drawn) | – |
| > 100 µM | NCCNc1ccc(N2C(=O)CN(C3CCCCC3)C(=O)c3ccc(Cl)cc32)cc1 | – |
| > 100 µM | NCCNc1ccc(N2C(=O)CN(C3CCCCC3)Cc3ccc(Cl)cc32)cc1 | logD (physchem): 1.4 |
| 23 µM | CC(C)CC1=NC(C)(C)C(=O)N(c2ccc(NCCN)cc2)c2cc(Cl)ccc21 | – |
| 2.3 µM | CC1(C)N=C(C2CCCCC2)c2ccc(C#N)cc2N(c2ccc(NCCNC3CCCCC3)cc2)C1=O | – |
| 0.18 µM | CC1(C)N=C(C2CCCCC2)c2ccc(C#N)cc2N(c2ccc(NCCNC3CCN(S(C)(=O)=O)CC3)cc2)C1=O | – |
| 6.8 µM | CC(C)C1(C)N=C(C2CCCCC2)c2ccc(Cl)cc2N(c2ccc(NCCN)cc2)C1=O (stereo not drawn) | – |
| 0.09 µM | CC1(C)N=C(C2CCCCC2)c2ccc(C#N)cc2N(c2ccc(NCCNC3CCOCC3)cc2)C1=O | solubility [2]: 760 µg/mL (≈ 1480 µM); solubility [3]: 500 µg/mL (≈ 973 µM); fraction unbound [4]: 0.029; clearance [5]: 46.8 mL/min/kg; Vd [6]: 4.7 L/kg; half-life [7]: 4.23 h; AUC(0-t) [8]: 1940 ng·h/mL; bioavailability [9]: 27%; logD (physchem): 2.9; remaining at 0.5 h (in vitro): 28% |
| 14 µM | CC(C)C1N=C(C2CCCCC2)c2ccc(Cl)cc2N(c2ccc(NCCN)cc2)C1=O (stereo not drawn) | – |
